Literature values in patent US20240166971A1, “CONTACT LENS TREATING SOLUTION” (Bausch + Lomb Ireland Limited, priority 2022, published 2024).

System: Gram-positive bacteria
Conditions: known property

CCCCC(CC)COCC(O)CO (stereo not shown) [EHOPD, 3-[(2-ethylhexyl)oxy]-1,2-propanediol]
antimicrobial activity: exhibit antimicrobial activity
